Test results from patent US10160867B2, “Benzoxaborole-containing coating resistant to cellulose-supportable fungus” (THE PENN STATE RESEARCH FOUNDATION, priority 2015, dated 2018).
Converted amounts (≈) assume the structure as drawn.

Tests used:
Type in all cases: cell-based
Alternaria alternata [1] = experiment: Fungus resistance test for painted surfaces containing antifungal additives (defacement rating); conditions: +100 μg/mL in Olympic Home paint
Procedure: (§1) A Defacement Rating is measured by estimating the percentage of surface defacement with 10 being no defacement and 0 begin completely defaced.
(§2) This test was used to evaluate the resistance of paint films containing antifungal additives to surface fungal growth.
(§3) Olympic® Home interior flat latex paint (PPG Industries, Pittsburgh, Pa.) and Valspar® QuikHide White flat interior paint (Valspar Corporation, Minneapolis, Minn.) were used for all studies unless otherwise noted. Stock solutions of the antifungal additives of interest were prepared in reagent grade dimethyl sulfoxide (DMSO; Alfa Aesar, Ward Hill, Mass.). Additives were spiked (by adding appropriate amounts of the antifungal stock solutions) into the liquid paint at specified concentrations. Samples of the additive-spiked paint were vigorously mixed with a vortex mixer for at least one minute to ensure uniform dispersion of the additive in the paint. […] Studies that use other brands of paint followed the same protocol as described for those using the Olympic® Home interior flat latex paint and Valspar® QuikHide paint.
(§4) Test surfaces were prepared in triplicate. In most cases, the tested conditions were repeated on a different date, again in triplicate. […] Two coats of paint were applied with a polyester brush to completely cover both faces of the filter paper disc, allowing at least four hours drying time between coats.
(§5) Nutrient-Salts Agar (NSA) medium was prepared according to ASTM method G21-13 in 100×15 mm sterile polystyrene petri dishes (VWR® Radnor, Pa.) with a solidified agar layer of about 3 to about 6 mm (⅛ to ¼ in.) in depth. The agar was allowed to solidify for at least 24 hours before being used. The painted test filter paper discs were placed in the center of the agar plates in a biosafety hood while wearing clean nitrile gloves.
(§6) The paint coatings were evaluated against three representative cellulose-supportable fungi: Stachybotrys chartarum, Penicillium chrysogenum, and Alternaria alternata. […] Fungal isolates of Alternaria alternata and Penicillium chrysogenum were obtained from the Plant Pathology and Environmental Microbiology Department at Penn State University.
(§7) A spore suspension of each of these fungi was prepared by pouring a 20-mL portion of autoclaved deionized water containing 0.01% Tween® 20 onto a subculture of each fungal species. Spores were counted with the use of a hemocytometer (Hausser Scientific, Horsham, Pa.) under a compound light microscope. Spore suspensions of Stachybotrys chartarum and Penicillium chrysogenum were diluted to 1×10^6 spores/mL with autoclaved deionized water. Spore suspensions of Alternaria alternata were used “as is” in the range of 200,000 to 400,000 spores/mL.
(§8) Painted test surfaces were inoculated with a spray bottle or with a sterile cotton-tipped applicator. To inoculate the sample with a spray bottle, the spore suspension was sprayed twice on the painted test discs with an autoclaved spray bottle that delivered approximately 0.14 g of fluid per spray. To inoculate the sample with a cotton-tipped applicator, an autoclaved cotton-tipped applicator was submerged in approximately 400 μL of the spore inoculum solution (spore concentrations described above) and applied evenly over the surface of the painted test surface twice. A fresh autoclaved cotton-tipped applicator was used for the application of each painted disc. All the paint studies with Alternaria alternata and Stachybotrys chartarum were inoculated using the spray bottle method. For studies with Penicillium chrysogenum using Olympic® Home paint, the spray bottle inoculation method was used. For studies with Penicillium chrysogenum using Valspar® QuikHide paint, the cotton-tipped applicator inoculation method was used.
(§9) After inoculation, the NSA agar plates were sealed with Parafilm®.

Stachybotrys chartarum [2] = experiment: as above; conditions: +100 μg/mL in Olympic Home paint
Procedure: as §1, §2, §3, §4, §5, §6, §7, §8, §9

Penicillium chrysogenum [3] = experiment: as above
Procedure: as §1, §2, §3, §4, §5, §6, §7, §8, §9

Alternaria alternata [4] = experiment: Fungus resistance test after painting over fungal growth (defacement rating); conditions: painted over fungal growth, +100 μg/mL in Olympic Home paint
Description: (§10) In this series of experiments, fungal growth was allowed to cover a painted surface (surface containing 2 coats of the unaltered paint) to a defacement rating of 3-5, forming a ‘contaminated surface’. […] The paint application was extended approximately 1-2 cm beyond the edge of the disc onto the NSA medium. Each formulation used a separate brush to avoid cross contamination. The re-painted discs were placed back into the humid environment with elevated temperature to encourage fungal growth.
(§11) This test was used to evaluate the ability of paint films containing antifungal additives to prevent the re-emergence of fungal growth after painting over existing growth.
(§12) Olympic® Home interior flat latex paint (PPG Industries, Pittsburgh, Pa.) and Valspar® QuikHide White flat interior paint (Valspar Corporation, Minneapolis, Minn.) were used for the experiments in this study unless specified. Stock solutions of the antifungal additives of interest were prepared in reagent grade dimethyl sulfoxide (DMSO; Alfa Aesar, Ward Hill, Mass.). Additives were spiked (by adding appropriate amounts of the antifungal stock solutions) into the liquid paint at specified concentrations. Samples of additive-spiked paint were vigorously mixed with a vortex mixer for at least one minute to insure uniform dispersion of the additive in the paint. […] Studies that used other brands of paint followed the same protocol as described for those using the Olympic® Home interior flat latex paint.
as §4
as §5, with “media” for “medium”, “from” for “of about”, “to” for “to about”
as §6, with “representative” for “representative cellulose-supportable”
(§13) A spore suspension of each of these fungi was prepared by pouring a 20-mL portion of autoclaved deionized water containing 0.01% Tween® 20 onto a subculture of each fungal species. Spores were counted with the use of a hemocytometer (Hausser Scientific, Horsham, Pa.) under a microscope. Spore suspensions of Stachybotrys chartarum and Penicillium chrysogenum were diluted to 1×10^6 spores/mL with autoclaved deionized water. Spore suspensions of Alternaria alternata were used “as is” in the range of 200,000 to 400,000 spores/mL.
(§14) Painted test surfaces were inoculated with a spray bottle or with a cotton-tipped applicator. To inoculate the sample with a spray bottle, the spore suspension was sprayed twice on the painted test discs with a spray bottle that delivered approximately 0.14 g of fluid per spray. To inoculate the sample with a cotton-tipped applicator, an autoclaved cotton-tipped applicator was submerged in approximately 400 μL of the inoculum solution and applied evenly over the surface of the painted test surface twice.

Stachybotrys chartarum [5] = experiment: as above; conditions: for Average defacement rating ± standard deviation: painted over fungal growth, +100 μg/mL in Olympic Home paint; for ability to inhibit Stachybotrys chartarum re-emergence on the surfaces: painting over contaminated surfaces, paints containing 100 μg/mL, after 7 days
Description: as §10, §11, §12, §4
as §5, with “media” for “medium”, “from” for “of about”, “to” for “to about”
as §6, with “representative” for “representative cellulose-supportable”
as §13, §14

Penicillium chrysogenum [6] = experiment: as above; conditions: painted over fungal growth, +200 μg/mL in Valspar QuikHide paint
Description: as §10, §11, §12, §4
as §5, with “media” for “medium”, “from” for “of about”, “to” for “to about”
as §6, with “representative” for “representative cellulose-supportable”
as §13, §14

Mucor spp. = experiment: 3 day MIC, broth microdilution in 25% PDB; conditions: 72 h
Procedure: (§15) Stock solutions (concentrations of between 4,000 μg/mL to 10,000 μg/mL; stored at −18° C.) of the above antifungals were prepared in dimethyl sulfoxide (DMSO). The stock solutions were further diluted into sterile 25% potato dextrose broth (PDB) so that the diluted solutions could be used for the antifungal susceptibility studies. This way, a typical microdilution study would reach a final ratio of about 0.5-2% v/v of DMSO in 25% PDB.
(§16) Spore inocula were prepared in sterile distilled water with 0.1% Tween® 20 (a polysorbate surfactant), and a hemocytometer was used to determine the spore density. Typically, the spore inoculum was prepared fresh prior to each study, and the inoculum was appropriately diluted to a final concentration of 0.4-1×10^5 spores/mL or colony-forming unit (CFU)/mL in each study. The spore suspension can be stored in a refrigerator at 4° C. for up to one week.
(§17) The minimal inhibitory concentrations (MICs) for individual antifungal agents were determined by following a modified broth microdilution protocol CLSI (Clinical and Laboratory Standards Institute) M38-A2 [Clinical and Laboratory Standards Institute (2008) Reference method for broth dilution antifungal susceptibility testing of filamentous fungi—2nd edition: Approved Standard M38-A2, CLSI, Wayne, Pa.] where 25% potato dextrose broth (PDB) was used as the medium. The studies were performed in flat bottom, 96-well microtiter plates (Greiner Bio-One, Frickenhausen, Germany).
(§18) Plates sealed with clear polyester film (VWR, Radnor, Pa.) were incubated at a temperature of about 25° C. The progress of fungal growth was monitored at 48 hours and 72 hours.

Aspergillus fumigatus = experiment: 3 day MIC, broth microdilution in 25% PDB; conditions: 72 h
Procedure: as §15, §16, §17, §18

Aspergillus niger = experiment: 3 day MIC, broth microdilution in 25% PDB; conditions: 72 h
Procedure: as §15, §16, §17, §18

Aspergillus flavus = experiment: 3 day MIC, broth microdilution in 25% PDB; conditions: 72 h
Procedure: as §15, §16, §17, §18

Rhizopus spp. = experiment: 3 day MIC, broth microdilution in 25% PDB; conditions: 72 h
Procedure: as §15, §16, §17, §18

Aureobasidium pullulans = experiment: 3 day MIC, broth microdilution in 25% PDB; conditions: 72 h
Procedure: as §15, §16, §17, §18

Fusarium oxysparum ST-33 = experiment: 3 day MIC, broth microdilution in 25% PDB; conditions: ST33, 72 h
Procedure: as §15, §16, §17, §18

Alternaria alternata [7] = experiment: 3 day MIC, broth microdilution in 25% PDB; conditions: 72 h, 25% PDB, read-out: 3 day MIC
Procedure: as §15, §16
(§19) The studies were performed in flat bottom, 96-well microtiter plates (Greiner Bio-One, Frickenhausen, Germany).
as §18

Stachybotrys chartarum [8] = experiment: 3 day MIC, broth microdilution in 25% PDB; conditions: 72 h, 25% PDB, read-out: 3 day MIC
Procedure: as §15, §16, §19, §18

## OB1OCc2ccccc21 [Compound B0, 2-(hydroxymethyl)-benzene boronic acid hemiester]
Alternaria alternata [1]; 7 days
  Average defacement rating ± standard deviation: 2.3 ± 2.3
Alternaria alternata [1]; 14 days
  Average defacement rating ± standard deviation: 0.5 ± 1.8
Alternaria alternata [1]; 21 days
  Average defacement rating ± standard deviation: 0.0 ± 0.0
Stachybotrys chartarum [2]; 7 days
  Average defacement rating ± standard deviation: 0.7 ± 1.3
Stachybotrys chartarum [2]; 14 days
  Average defacement rating ± standard deviation: 0.0 ± 0.0
Stachybotrys chartarum [2]; 21 days
  Average defacement rating ± standard deviation: 0.0 ± 0.0
Penicillium chrysogenum [3]; +100 μg/mL in Olympic Home paint, 7 days
  Average defacement rating ± standard deviation: 2.7 ± 0.8
Penicillium chrysogenum [3]; +100 μg/mL in Olympic Home paint, 14 days
  Average defacement rating ± standard deviation: 0.0 ± 0.0
Penicillium chrysogenum [3]; +100 μg/mL in Olympic Home paint, 21 days
  Average defacement rating ± standard deviation: 0.0 ± 0.0
Penicillium chrysogenum [3]; +200 μg/mL in Olympic Home paint, 7 days
  Average defacement rating ± standard deviation: 10.0 ± 0.0
Penicillium chrysogenum [3]; +200 μg/mL in Olympic Home paint, 14 days
  Average defacement rating ± standard deviation: 6.8 ± 4.0
Penicillium chrysogenum [3]; +200 μg/mL in Olympic Home paint, 21 days
  Average defacement rating ± standard deviation: 5.0 ± 5.5
Penicillium chrysogenum [3]; +200 μg/mL in Valspar QuikHide paint, 7 days
  Average defacement rating ± standard deviation: 10.0 ± 0.0
Penicillium chrysogenum [3]; +200 μg/mL in Valspar QuikHide paint, 14 days
  Average defacement rating ± standard deviation: 6.8 ± 4.0
Penicillium chrysogenum [3]; +200 μg/mL in Valspar QuikHide paint, 21 days
  Average defacement rating ± standard deviation: 5.0 ± 5.5
Alternaria alternata [4]; 7 days
  Average defacement rating ± standard deviation: 2.1 ± 1.6 (6)
Alternaria alternata [4]; 14 days
  Average defacement rating ± standard deviation: 1.0 ± 1.3 (6)
Alternaria alternata [4]; 21 days
  Average defacement rating ± standard deviation: 0.4 ± 0.6 (6)
Stachybotrys chartarum [5]; 7 days
  Average defacement rating ± standard deviation: 6.1 ± 3.3 (9)
Stachybotrys chartarum [5]; 14 days
  Average defacement rating ± standard deviation: 4.4 ± 3.0 (9)
Stachybotrys chartarum [5]; 21 days
  Average defacement rating ± standard deviation: 3.9 ± 2.9 (9)
Penicillium chrysogenum [6]; 7 days
  Average defacement rating ± standard deviation: 0.0 ± 0.0 (9)
Penicillium chrysogenum [6]; 14 days
  Average defacement rating ± standard deviation: 0.0 ± 0.0 (9)
Penicillium chrysogenum [6]; 21 days
  Average defacement rating ± standard deviation: 0.0 ± 0.0 (9)

## Cc1ccc2c(c1)COB2O [Compound B1, 5-Methyl-1,3-dihydro-2,1-benzoxaborol-1-ol]
Mucor spp.
  MIC: 1 µg/mL (≈ 6.76 µM)
Aspergillus fumigatus
  MIC: 0.25 µg/mL (≈ 1.69 µM)
Aspergillus niger
  MIC: 2 µg/mL (≈ 13.5 µM)
Aspergillus flavus
  MIC: 2 µg/mL (≈ 13.5 µM)
Rhizopus spp.
  MIC: 16 µg/mL (≈ 108 µM)
Aureobasidium pullulans
  MIC: 1 µg/mL (≈ 6.76 µM)
Fusarium oxysparum ST-33
  MIC: 1 µg/mL (≈ 6.76 µM)
Stachybotrys chartarum [5]
  ability to inhibit Stachybotrys chartarum re-emergence on the surfaces: very little ability to inhibit
Alternaria alternata [7]
  MIC: 6.3 µg/mL (≈ 42.6 µM)
Stachybotrys chartarum [8]
  MIC: 0.5 µg/mL (≈ 3.38 µM)

## OB1OCCc2cc(F)ccc21 [Compound B5, 6-fluoro-3,4-dihydro-1H-2,1-benzoxaborinin-1-ol]
Stachybotrys chartarum [5]
  ability to inhibit Stachybotrys chartarum re-emergence on the surfaces: very little ability to inhibit
Alternaria alternata [7]
  MIC: 200 µg/mL (≈ 1210 µM)
Stachybotrys chartarum [8]
  MIC: 6.3 µg/mL (≈ 38 µM)
